Reference: ChEMBL document CHEMBL2375251, “Anticancer activity of novel hybrid molecules containing 5-benzylidene thiazolidine-2,4-dione” (Eur J Med Chem, 2013)

Columns and labels:
Assay type in all cases: functional, cell-based
HeLa = assay: Cytotoxicity against human HeLa cells after 4 days by Coulter counter analysis; settings: 96 h
FM3A = assay: Cytotoxicity against mouse FM3A cells after 2 days by Coulter counter analysis; settings: 48 h
L1210 = assay: Cytotoxicity against mouse L1210 cells after 2 days by Coulter counter analysis; settings: L1210, 48 h
CCRF-CEM = assay: Cytotoxicity against human CEM cells after 3 days by Coulter counter analysis; settings: 72 h

| SMILES | IC50 (HeLa) | IC50 (FM3A) | IC50 (L1210) | IC50 (CCRF-CEM) |
| --- | --- | --- | --- | --- |
| Nc1ccc(/C=C2\SC(=O)N(Cc3ccc(C(F)(F)F)cc3)C2=O)cc1 | 96 µM | 134 µM | 6 µM | 32 µM |
| Nc1ccc(/C=C2\SC(=O)N(Cc3cccc(Cl)c3)C2=O)cc1 | 24 µM | 10 µM | 4.7 µM | 18 µM |
| Nc1cccc(/C=C2\SC(=O)N(Cc3ccc(C(F)(F)F)cc3)C2=O)c1 | > 250 µM | > 250 µM | > 250 µM | > 250 µM |
| C=C(Br)C(=O)Nc1ccc(/C=C2\SC(=O)N(Cc3ccccc3)C2=O)cc1 | 1 µM | 3 µM | 1.1 µM | 2.3 µM |
| C=C(Br)C(=O)Nc1ccc(/C=C2\SC(=O)N(Cc3ccc(F)cc3)C2=O)cc1 | 2 µM | 4.6 µM | 2.2 µM | 2.4 µM |
| CC(C)(C)c1ccc(CN2C(=O)S/C(=C\c3cccc(N)c3)C2=O)cc1 | 145 µM | 188 µM | 223 µM | 165 µM |
| C=C(Br)C(=O)Nc1ccc(/C=C2\SC(=O)N(Cc3ccc(C(F)(F)F)cc3)C2=O)cc1 | 13 µM | 23 µM | 12 µM | 8 µM |
| Nc1ccc(/C=C2\SC(=O)N(Cc3ccc(F)cc3)C2=O)cc1 | 186 µM | 36 µM | 24 µM | 111 µM |
| Nc1ccc(/C=C2\SC(=O)N(Cc3cccc(F)c3)C2=O)cc1 | 250 µM | 121 µM | 100 µM | 116 µM |
| Nc1cccc(/C=C2\SC(=O)N(Cc3cccc(Cl)c3)C2=O)c1 | 250 µM | 164 µM | 211 µM | 195 µM |
| C=C(Br)C(=O)Nc1ccc(/C=C2\SC(=O)N(Cc3ccc(C)cc3)C2=O)cc1 | 8.9 µM | 6.1 µM | 3.4 µM | 3.7 µM |
| CC(C)(C)c1ccc(CN2C(=O)S/C(=C\c3ccc(N)cc3)C2=O)cc1 | 53 µM | 80 µM | 94 µM | 66 µM |
| C=C(Br)C(=O)Nc1cccc(/C=C2\SC(=O)N(Cc3ccc(C)cc3)C2=O)c1 | 1.2 µM | 1 µM | 0.6 µM | 1.2 µM |
| C=C(Br)C(=O)Nc1ccc(/C=C2\SC(=O)N(CCc3ccccc3)C2=O)cc1 | 4.5 µM | 5.5 µM | 2.9 µM | 4.2 µM |
| Nc1ccc(/C=C2\SC(=O)N(Cc3ccc(Cl)cc3)C2=O)cc1 | 77 µM | 60 µM | 37 µM | 87 µM |
| Nc1cccc(/C=C2\SC(=O)N(Cc3ccc(F)cc3)C2=O)c1 | 86 µM | 140 µM | 142 µM | 87 µM |
| Nc1cccc(/C=C2\SC(=O)N(Cc3cccc(F)c3)C2=O)c1 | > 250 µM | > 250 µM | 199 µM | 250 µM |
| C=C(Br)C(=O)Nc1ccc(/C=C2\SC(=O)N(Cc3cccc(Cl)c3)C2=O)cc1 | 8.9 µM | 6.1 µM | 3.4 µM | 3.7 µM |
| C=C(Br)C(=O)Nc1ccc(/C=C2\SC(=O)N(CC)C2=O)cc1 | 1.4 µM | 2.3 µM | 0.5 µM | 0.87 µM |

| SMILES | IC50 (HeLa) | IC50 (FM3A) | IC50 (L1210) | IC50 (CCRF-CEM) |
| --- | --- | --- | --- | --- |
| C=C(Br)C(=O)Nc1ccc(/C=C2\SC(=O)N(Cc3ccc(Cl)cc3)C2=O)cc1 | 2.3 µM | 5.1 µM | 3.4 µM | 2.8 µM |
| C=C(Br)C(=O)Nc1cccc(/C=C2\SC(=O)N(Cc3cccc(Cl)c3)C2=O)c1 | 2.5 µM | 1.7 µM | 1.1 µM | 1.4 µM |
| Nc1cccc(/C=C2\SC(=O)N(Cc3ccc(Cl)cc3)C2=O)c1 | > 250 µM | 246 µM | 218 µM | > 250 µM |
| C=C(Br)C(=O)Nc1ccc(/C=C2\SC(=O)N(Cc3cccc(F)c3)C2=O)cc1 | 5.9 µM | 4 µM | 1.2 µM | 3.2 µM |
| C=C(Br)C(=O)Nc1ccc(/C=C2\SC(=O)N(Cc3ccc(C(C)(C)C)cc3)C2=O)cc1 | 2.7 µM | 4 µM | 1.6 µM | 0.83 µM |
| Nc1ccc(/C=C2\SC(=O)N(CCc3ccccc3)C2=O)cc1 | > 250 µM | 215 µM | 217 µM | > 250 µM |
| Nc1cccc(/C=C2\SC(=O)N(CCc3ccccc3)C2=O)c1 | 250 µM | 68 µM | 142 µM | 106 µM |
| C=C(Br)C(=O)Nc1cccc(/C=C2\SC(=O)N(CCc3ccccc3)C2=O)c1 | 3.5 µM | 2.2 µM | 1.3 µM | 0.94 µM |
| C=C(Br)C(=O)Nc1cccc(/C=C2\SC(=O)N(Cc3ccc(Cl)cc3)C2=O)c1 | 2.7 µM | 1.6 µM | 0.94 µM | 1.4 µM |
| CN1C(=O)S/C(=C\c2ccc(N)cc2)C1=O | 97 µM | 107 µM | 99 µM | 62 µM |
| C=C(Br)C(=O)Nc1cccc(/C=C2\SC(=O)N(Cc3ccc(C(C)(C)C)cc3)C2=O)c1 | 2.8 µM | 5.2 µM | 3.2 µM | 3 µM |
| N[C@@H](Cc1ccc(N(CCCl)CCCl)cc1)C(=O)O [MELPHALAN] | – | 3.6 µM | – | 3.5 µM |
| Nc1ccc(/C=C2\SC(=O)N(Cc3ccccc3)C2=O)cc1 | 46 µM | 24 µM | 38 µM | 42 µM |
| Nc1cccc(/C=C2\SC(=O)N(Cc3ccccc3)C2=O)c1 | > 250 µM | > 250 µM | 233 µM | > 250 µM |
| CCN1C(=O)S/C(=C\c2ccc(N)cc2)C1=O | 108 µM | 76 µM | 82 µM | 91 µM |
| C=C(Br)C(=O)Nc1cccc(/C=C2\SC(=O)N(Cc3cccc(F)c3)C2=O)c1 | 2.7 µM | 0.69 µM | 0.59 µM | 0.69 µM |
| Cc1ccc(CN2C(=O)S/C(=C\c3cccc(N)c3)C2=O)cc1 | 98 µM | 158 µM | 176 µM | > 250 µM |
| C=C(Br)C(=O)Nc1ccc(/C=C2\SC(=O)N(C)C2=O)cc1 | 0.87 µM | 0.75 µM | 0.19 µM | 0.36 µM |
| Cc1ccc(CN2C(=O)S/C(=C\c3ccc(N)cc3)C2=O)cc1 | > 250 µM | > 250 µM | 94 µM | > 250 µM |
